Laboratory results taken from PubChem BioAssay AID1963421 (Molecular Pharmacology Branch, DTP, NCI, 2024).

Tested on: 519858-162-T-J1-PDC complex spheroid growth, % test/control
Experiment: Anticancer human tumor 519858-162-T-J1-PDC patient-derived colon adenocarcinoma cell line growth inhibition [Asc]
Settings: for IC50: curve of first compound; for viability, T/C: stronger effect = lower value
Outline: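 Stromal components (HUVEC and hMSC) are co-assembled with the cancer cells into multicellular spheroids. Drugs are then added singly or paired, at concentrations falling by half-log increments from a clinically achievable maximum, capped at 10 microM without known Cmax.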

[1] = second compound 0.00949 µM, first compound 0.00316 µM
[2] = second compound 0.00949 µM, first compound 0.01 µM
[3] = second compound 0.00949 µM, first compound 0.0316 µM
[4] = second compound 0.00949 µM, first compound 0.1 µM
[5] = second compound 0.03 µM, first compound 0.00316 µM
[6] = second compound 0.03 µM, first compound 0.01 µM
[7] = second compound 0.03 µM, first compound 0.0316 µM
[8] = second compound 0.03 µM, first compound 0.1 µM
[9] = second compound 0.0949 µM, first compound 0.00316 µM
[10] = second compound 0.0949 µM, first compound 0.01 µM
[11] = second compound 0.0949 µM, first compound 0.0316 µM
[12] = second compound 0.0949 µM, first compound 0.1 µM
[13] = second compound 0.3 µM, first compound 0.00316 µM
[14] = second compound 0.3 µM, first compound 0.01 µM
[15] = second compound 0.3 µM, first compound 0.0316 µM
[16] = second compound 0.3 µM, first compound 0.1 µM
[17] = second compound 0.949 µM, first compound 0.00316 µM
[18] = second compound 0.949 µM, first compound 0.01 µM
[19] = second compound 0.949 µM, first compound 0.0316 µM
[20] = second compound 0.949 µM, first compound 0.1 µM
[21] = second compound 3 µM, first compound 0.00316 µM
[22] = second compound 3 µM, first compound 0.01 µM
[23] = second compound 3 µM, first compound 0.0316 µM
[24] = second compound 3 µM, first compound 0.1 µM
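Also: seven day drug exposure begun three days after spheroid seeding.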
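For viability, T/C in this document: 100% = DMSO vehicle wells and lower values mean less viable spheroid.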

COc1c(OCCCN2CCOCC2)ccc2c3n(c(=NC(=O)c4cnc(N)nc4)nc12)CCN3 + CCN1C(C(=O)NC23CCC(C(=O)O)(CC2)CC3)C(c2cccc(Cl)c2F)C2(C(=O)Nc3cc(Cl)ccc32)C12CCCCC2
IC50 (second compound 0.00949 µM): > 1000 nM | IC50 (second compound 0.03 µM): > 1000 nM | IC50 (second compound 0.0949 µM): > 1000 nM | IC50 (second compound 0.3 µM): 749 nM | IC50 (second compound 0.949 µM): 301 nM | IC50 (second compound 3 µM): > 1000 nM | viability, T/C [1]: 75.5% | viability, T/C [2]: 130% | viability, T/C [3]: 88.6% | viability, T/C [4]: 80.3% | viability, T/C (second compound 0.00949 µM, first compound 0.316 µM): 70.8% | viability, T/C (second compound 0.00949 µM, first compound 1 µM): 53% | viability, T/C [5]: 95.3% | viability, T/C [6]: 93.1% | viability, T/C [7]: 89.3% | viability, T/C [8]: 80.3% | viability, T/C (second compound 0.03 µM, first compound 0.316 µM): 81.6% | viability, T/C (second compound 0.03 µM, first compound 1 µM): 57.3% | viability, T/C [9]: 86.8% | viability, T/C [10]: 80.3% | viability, T/C [11]: 98.1% | viability, T/C [12]: 77.2% | viability, T/C (second compound 0.0949 µM, first compound 0.316 µM): 64.2% | viability, T/C (second compound 0.0949 µM, first compound 1 µM): 55.9% | viability, T/C [13]: 89.8% | viability, T/C [14]: 73.2% | viability, T/C [15]: 80.2% | viability, T/C [16]: 84.3% | viability, T/C (second compound 0.3 µM, first compound 0.316 µM): 56.2% | viability, T/C (second compound 0.3 µM, first compound 1 µM): 47.9% | viability, T/C [17]: 69.6% | viability, T/C [18]: 91.1% | viability, T/C [19]: 91% | viability, T/C [20]: 47.5% | viability, T/C (second compound 0.949 µM, first compound 0.316 µM): 60.8% | viability, T/C (second compound 0.949 µM, first compound 1 µM): 32.1% | viability, T/C [21]: 78.4% | viability, T/C [22]: 86% | viability, T/C [23]: 80.6% | viability, T/C [24]: 57.6% | viability, T/C (second compound 3 µM, first compound 0.316 µM): 60.2% | viability, T/C (second compound 3 µM, first compound 1 µM): 50.4%

NC(=O)C(=Cn1cnc(-c2cc(C(F)(F)F)cc(C(F)(F)F)c2)n1)c1cncnc1 + CCN1C(C(=O)NC23CCC(C(=O)O)(CC2)CC3)C(c2cccc(Cl)c2F)C2(C(=O)Nc3cc(Cl)ccc32)C12CCCCC2
IC50 (second compound 0.00949 µM): > 300 nM | IC50 (second compound 0.03 µM): > 300 nM | IC50 (second compound 0.0949 µM): > 300 nM | IC50 (second compound 0.3 µM): > 300 nM | IC50 (second compound 0.949 µM): > 300 nM | IC50 (second compound 3 µM): > 300 nM | viability, T/C (second compound 0.00949 µM, first compound 0.000949 µM): 102% | viability, T/C (second compound 0.00949 µM, first compound 0.003 µM): 94.8% | viability, T/C (second compound 0.00949 µM, first compound 0.00949 µM): 56.9% | viability, T/C (second compound 0.00949 µM, first compound 0.03 µM): 69.6% | viability, T/C (second compound 0.00949 µM, first compound 0.0949 µM): 65.8% | viability, T/C (second compound 0.00949 µM, first compound 0.3 µM): 81.9% | viability, T/C (second compound 0.03 µM, first compound 0.000949 µM): 87.2% | viability, T/C (second compound 0.03 µM, first compound 0.003 µM): 81% | viability, T/C (second compound 0.03 µM, first compound 0.00949 µM): 94.5% | viability, T/C (second compound 0.03 µM, first compound 0.03 µM): 81.4% | viability, T/C (second compound 0.03 µM, first compound 0.0949 µM): 63.5% | viability, T/C (second compound 0.03 µM, first compound 0.3 µM): 53.8% | viability, T/C (second compound 0.0949 µM, first compound 0.000949 µM): 87.5% | viability, T/C (second compound 0.0949 µM, first compound 0.003 µM): 94.5% | viability, T/C (second compound 0.0949 µM, first compound 0.00949 µM): 94.3% | viability, T/C (second compound 0.0949 µM, first compound 0.03 µM): 63.8% | viability, T/C (second compound 0.0949 µM, first compound 0.0949 µM): 63.4% | viability, T/C (second compound 0.0949 µM, first compound 0.3 µM): 63% | viability, T/C (second compound 0.3 µM, first compound 0.000949 µM): 75.5% | viability, T/C (second compound 0.3 µM, first compound 0.003 µM): 73.2% | viability, T/C (second compound 0.3 µM, first compound 0.00949 µM): 70.8% | viability, T/C (second compound 0.3 µM, first compound 0.03 µM): 88.2% | viability, T/C (second compound 0.3 µM, first compound 0.0949 µM): 45.1% | viability, T/C (second compound 0.3 µM, first compound 0.3 µM): 85.9% | viability, T/C (second compound 0.949 µM, first compound 0.000949 µM): 69.5% | viability, T/C (second compound 0.949 µM, first compound 0.003 µM): 71.9% | viability, T/C (second compound 0.949 µM, first compound 0.00949 µM): 58.3% | viability, T/C (second compound 0.949 µM, first compound 0.03 µM): 78.7% | viability, T/C (second compound 0.949 µM, first compound 0.0949 µM): 85.4% | viability, T/C (second compound 0.949 µM, first compound 0.3 µM): 79.2% | viability, T/C (second compound 3 µM, first compound 0.000949 µM): 69% | viability, T/C (second compound 3 µM, first compound 0.003 µM): 81.2% | viability, T/C (second compound 3 µM, first compound 0.00949 µM): 59% | viability, T/C (second compound 3 µM, first compound 0.03 µM): 65.5% | viability, T/C (second compound 3 µM, first compound 0.0949 µM): 91.2% | viability, T/C (second compound 3 µM, first compound 0.3 µM): 82.1%

NC1CCC(NC2CC2c2ccccc2)CC1 (stereo unspecified) + CCN1C(C(=O)NC23CCC(C(=O)O)(CC2)CC3)C(c2cccc(Cl)c2F)C2(C(=O)Nc3cc(Cl)ccc32)C12CCCCC2
IC50 (second compound 0.00949 µM): > 100 nM | IC50 (second compound 0.03 µM): > 100 nM | IC50 (second compound 0.0949 µM): > 100 nM | IC50 (second compound 0.3 µM): > 100 nM | IC50 (second compound 0.949 µM): > 100 nM | IC50 (second compound 3 µM): > 100 nM | viability, T/C (second compound 0.00949 µM, first compound 0.000316 µM): 101% | viability, T/C (second compound 0.00949 µM, first compound 0.001 µM): 129% | viability, T/C [1]: 130% | viability, T/C [2]: 112% | viability, T/C [3]: 107% | viability, T/C [4]: 92.4% | viability, T/C (second compound 0.03 µM, first compound 0.000316 µM): 146% | viability, T/C (second compound 0.03 µM, first compound 0.001 µM): 149% | viability, T/C [5]: 101% | viability, T/C [6]: 84.1% | viability, T/C [7]: 70.2% | viability, T/C [8]: 110% | viability, T/C (second compound 0.0949 µM, first compound 0.000316 µM): 136% | viability, T/C (second compound 0.0949 µM, first compound 0.001 µM): 127% | viability, T/C [9]: 136% | viability, T/C [10]: 124% | viability, T/C [11]: 128% | viability, T/C [12]: 107% | viability, T/C (second compound 0.3 µM, first compound 0.000316 µM): 101% | viability, T/C (second compound 0.3 µM, first compound 0.001 µM): 82% | viability, T/C [13]: 99.6% | viability, T/C [14]: 95.7% | viability, T/C [15]: 95.4% | viability, T/C [16]: 129% | viability, T/C (second compound 0.949 µM, first compound 0.000316 µM): 97.5% | viability, T/C (second compound 0.949 µM, first compound 0.001 µM): 83.1% | viability, T/C [17]: 117% | viability, T/C [18]: 89.1% | viability, T/C [19]: 89.9% | viability, T/C [20]: 91% | viability, T/C (second compound 3 µM, first compound 0.000316 µM): 66.9% | viability, T/C (second compound 3 µM, first compound 0.001 µM): 86.8% | viability, T/C [21]: 74.4% | viability, T/C [22]: 66.3% | viability, T/C [23]: 74.3% | viability, T/C [24]: 89.2%
